Assay results: publication PMC5948259, “A phase I study to assess the mass balance, excretion, and pharmacokinetics of [^14C]-ixazomib, an oral proteasome inhibitor, in patients with advanced solid tumors” (Investigational New Drugs, 2017)
“And” between values parts separate entries of the source, which are not always exact repeats. Equal entries are not always repeated. Where two headings read alike, the source gives them in different places.

Legend:
[1] = Mass balance: recovery of TRA in urine and feces by accelerator mass spectrometry; type: in vivo, human; conditions: for Total recovery (%) of TRA in urine and feces: days 1–35
Method: (§1) The primary objectives of the study were: (1) to assess the mass balance (i.e., cumulative excretion of TRA in urine and feces) of ixazomib following a single oral solution dose of 4.1 mg [^14C]-ixazomib containing approximately 500 nCi of TRA (specific activity of 125 nCi/mg); and (2) to characterize the PK of ixazomib in plasma and urine, and of TRA in plasma and whole blood, after a single oral solution dose of 4.1 mg [^14C]-ixazomib. The secondary objective was to assess the safety and tolerability of multiple-dose ixazomib administration in patients with advanced solid tumors or lymphoma.
(§2) This study was conducted in two parts: a 35-day PK cycle (Part A), followed by repeated 28-day treatment cycles (Part B; Fig. 1). In Part A of the study, patients who met the inclusion and exclusion criteria were admitted to the study clinic on the morning of day 1 for the initial confinement period (days 1–8). Patients received a single 10 mL oral solution dose of 4.1 mg [^14C]-ixazomib containing approximately 500 nCi of TRA, followed by 3 × 10 mL water rinses of the dosing cup. Patients then drank approximately 200 mL of water. Patients returned to the clinic on days 14, 21, 28, and 35 for a 24 h overnight clinic visit. Non-radiolabeled doses of ixazomib (4 mg capsule) were administered on days 14 and 21. After completing their day 35 assessments in Part A, patients were permitted to continue into Part B of the study, where they received non-radiolabeled ixazomib (4 mg capsules) once weekly on days 1, 8, and 15 of each 28-day treatment cycle until disease progression or unacceptable toxicity. All doses of ixazomib were administered on an empty stomach, at least 1 h before or at least 2 h after food.
Plasma and whole blood samples were collected at the following time points after ixazomib administration on day 1 of Part A: 0 (predose), 0.5, 1, 2, 3, 4, 8, 24, 48, 72, 96, 120, 144, 168, 312 (day 14), 480 (day 21), 648 (day 28), and 816 (day 35) h post dose. Complete urinary and fecal output was collected continuously during the initial confinement period of Part A (days 1–8). Patients were discharged from the clinic on day 8 and returned on days 14, 21, 28, and 35 for a 24 h overnight visit. Urinary and fecal output was collected during each of these 24 h overnight clinic visits. Patients were also instructed to collect all feces at home for the 24 h period before each overnight clinic visit (days 13, 20, 27, and 34).
To achieve enhanced analytical sensitivity, accelerator mass spectrometry (AMS) was used to determine TRA in urine, feces, whole blood, and plasma samples. […] At the testing facility (Accium BioSciences, Seattle, WA, USA), samples were assigned a unique tracking number, labeled, and stored at −70 °C until further analysis. Samples were subsequently removed from storage, thawed at room temperature, and thoroughly mixed. A known aliquot of each specimen was transferred to a pre-baked quartz tube and a known amount of carbon carrier added. Samples were then dried using vacuum centrifugation and submitted for graphitization; a known amount of each specimen was combusted and then reduced to graphite for measurement of total ^14C in the sample [22]. The resulting iron-graphite mixture was pressed into individual cathodes and submitted for AMS measurement on a National Electrostatics 5.2.1.Corporation (NEC) 1.5SDH Compact AMS System (Middleton, WI) running data acquisition software developed by NEC. Total carbon measurements were performed on a Shimadzu V-Series Total 5.2.2.Organic Carbon Analyzer, which uses oxidative combustion combined with non-dispersive infrared detection for the determination of total carbon concentrations. […]

[2] = Safety and tolerability (treatment-emergent adverse events) of ixazomib in patients with advanced solid tumors; type: in vivo, human
Method: as §1, §2

[3] = test system: advanced solid tumors; experiment: Disease status during the study (efficacy, not a formal endpoint); type: in vivo, human; conditions: for Time on study with long-term stable disease: single-agent ixazomib
Method: as §2

[4] = test system: relapsed/refractory MM; design: method as in PMID 27119237; conditions: cited from earlier work
[5] = design: method as in PMID 28290121; conditions: population PK estimate; cited from earlier work
[6] = test system: cytochrome P450 (CYP) and non-CYP proteins; design: method as in earlier work; conditions: clinically relevant ixazomib concentrations; cited from earlier work
[7] = test system: CYP3A4; design: method as in earlier work; conditions: 10 μM, exceeding clinical concentrations; cited from earlier work
[8] = test system: CYP2C8; design: method as in earlier work; conditions: 10 μM, exceeding clinical concentrations; cited from earlier work
[9] = test system: CYP2D6; design: method as in earlier work; conditions: 10 μM, exceeding clinical concentrations; cited from earlier work
[10] = cited from earlier work
[11] = design: method as in PMID 28800141; conditions: cited from earlier work
[12] = design: method as in PMID 28550039; conditions: 4 mg capsules, relapsed or refractory light-chain amyloidosis, cited from earlier work

## CC(C)C[C@H](NC(=O)CNC(=O)c1cc(Cl)ccc1Cl)B(O)O [ixazomib]
[1]; Mean (SD), N = 5
  Cumulative TRA recovered in feces (days 1–35, %) of administered dose: 21.8% and 21.8 (3.41) %
  Cumulative TRA recovered in urine (days 1–35, %) of administered dose: 62.1% and 62.1 (21.2) %
  Total recovery (%) of TRA in urine and feces: 83.9 (20.7) %
[1]; Patient 001
  Cumulative TRA recovered in feces (days 1–35, %) of administered dose: 18.3%
  Cumulative TRA recovered in urine (days 1–35, %) of administered dose: 40.8%
  Total recovery (%) of TRA in urine and feces: 59.1%
[1]; Patient 002
  Cumulative TRA recovered in feces (days 1–35, %) of administered dose: 18.7%
  Cumulative TRA recovered in urine (days 1–35, %) of administered dose: 96.0%
  Total recovery (%) of TRA in urine and feces: 115%
[1]; Patient 005
  Cumulative TRA recovered in feces (days 1–35, %) of administered dose: 26.4%
  Cumulative TRA recovered in urine (days 1–35, %) of administered dose: 58.5%
  Total recovery (%) of TRA in urine and feces: 84.9%
[1]; Patient 006
  Cumulative TRA recovered in feces (days 1–35, %) of administered dose: 23.7%
  Cumulative TRA recovered in urine (days 1–35, %) of administered dose: 49.3%
  Total recovery (%) of TRA in urine and feces: 73.0%
[1]; Patient 007
  Cumulative TRA recovered in feces (days 1–35, %) of administered dose: 21.9%
  Cumulative TRA recovered in urine (days 1–35, %) of administered dose: 65.7%
  Total recovery (%) of TRA in urine and feces: 87.6%
[1]; after day 28
  Daily increment in excretion of TRA: < 1%
[1]; by day 14 post dose
  Mean cumulative excretion of TRA in urine and feces: 59.0%
[1]; day 28 (plateau of excretion rate)
  Mean total recovery of TRA in urine and feces: 79.4%
[1]; inferred from urinary TRA recovery
  Orally administered dose absorbed into the systemic circulation, suggested by urinary recovery: at least 62%
[2]; human, in vivo
  Abdominal pain incidence: 43%
  Constipation incidence: 29%
  Decreased appetite incidence: 43%
  Diarrhea incidence: 71%
  Dry mouth incidence: 14%
  Headache incidence: 43%
  Nausea incidence: 29%
  Patients experiencing a grade 3 AE (influenza and platelet count decreased): two patients
  Patients with a drug-related event: 86%
  Premature discontinuation or dose reduction due to an adverse event: No patients
  Serious adverse event (influenza, deemed unrelated to study drug): One patient
  TEAEs affecting the gastrointestinal system: all patients experiencing an event
  Vomiting incidence: 29%
[2]; safety population N = 7
  Deaths on study: no patients died while on study
[3]; 7 patients enrolled
  Patients who developed progressive disease during the study period: 5 patients
[3]; patient with cholangiocarcinoma
  Time on study with long-term stable disease: 162 days
[3]; patient with ovarian cancer
  Time on study with long-term stable disease: 427 days
[4]; ixazomib (4 mg starting dose) added to lenalidomide and dexamethasone, RRMM patients, versus 14.7 months with placebo
  Median progression-free survival: 20.6 months
[4]; ixazomib plus lenalidomide and dexamethasone versus placebo plus lenalidomide and dexamethasone, p = 0.012
  Progression-free survival hazard ratio: 0.74
[5]
  Absolute oral bioavailability: 58%
  Steady-state volume of distribution: 543 L
  Systemic clearance: 1.86 L/h
  Terminal disposition phase half-life (t1/2): 9.5 days
[6]
  Metabolic pathways in vitro: metabolized by multiple cytochrome P450 (CYP) and non-CYP proteins with CYP450 enzymes playing only a minor role
[7]
  Estimated relative contribution of 3A4 to metabolism: 42%
[8]
  Estimated relative contribution of 2C8 to metabolism: 6%
[9]
  Estimated relative contribution of 2D6 to metabolism: 5%
[10]; moderate and severe hepatic impairment
  Higher total systemic exposure of ixazomib: 20%
[10]; population PK analyses
  Effect of mild hepatic impairment (total bilirubin ≤1.5 x ULN) on ixazomib PK: no clinically meaningful effect
  Effect of mild renal impairment (CrCl ≥30 mL/min) on ixazomib PK: no clinically meaningful effect
[10]; severe renal impairment and end-stage renal disease
  Higher total systemic exposure of ixazomib compared with normal renal function: 39%
[10]; severe renal impairment, end-stage renal disease requiring dialysis, moderate or severe hepatic impairment, dedicated phase I studies
  Plasma exposures versus patients with normal organ function: increased
[11]; co-administration of rifampin
  Reduction of plasma exposures (AUC) of ixazomib: 74%
[11]; ketoconazole and clarithromycin
  Effect of strong CYP3A inhibitors on ixazomib PK: no significant effect
[12]; day 1
  Whole blood to plasma AUC0–168 ratio for ixazomib alone: 12.7
[12]; day 15
  Whole blood to plasma AUC0–168 ratio for ixazomib alone: 9.86
